From patent US20090118350A1, “Biomarkers for Identifying Efficacy of Tegaserod in Patients with Chronic Constipation” (priority 2005, published 2009)

System: patients with chronic constipation
Assay: Clinical trial, primary efficacy: mean increase of 1 or more CSBM/week over baseline after 4 weeks of treatment (responders), by subgroup and genotype
Type: in vivo, human
Conditions: 6-mg bid vs placebo, 4 weeks
Method: Introduction. A clinical trial was performed to evaluate the efficacy of tegaserod (Zelmac®/Zelnorm™) at 6 mg bid (12 mg/day) or 2 mg bid (4 mg/day) vs. placebo by measuring the number of complete spontaneous bowel movements (CSBM) during the first 4 weeks of treatment. Secondary objectives included evaluating the number of CSBM during the entire 12-week treatment period, bowel habits, laxative use, and safety and tolerability issues. The clinical trial design consisted of a 2-week baseline period without medication, a 12-week, randomized, double-blind, placebo-controlled treatment period, and a 4-week withdrawal period without study medication. As part of the clinical trial, DNA was collected from patients at screening for pharmacogenetic analysis to evaluate genetic polymorphisms relating to drug targets and disease aetiology.
Samples. A total 1348 patients were randomized as the intent-to-treat (ITT) population. Blood samples from these patients were collected at the time of patient screening and DNA was extracted using the PUREGENE™ DNA Isolation Kit (D-50K). Of these, samples from 738 randomized patients had good quality genotype data for at least half of the 55 SNPs evaluated.
Clinical assessments. […] The primary efficacy endpoint evaluated was the increase of 1 or more CSBM/week over baseline after 4 weeks of treatment. A secondary endpoint evaluated in this genotyping study was RESP12, the increase of 1 of more CSBM/week over baseline after 12 weeks of treatment. Patients were classified as responders if they met these criteria and had completed at least 7 days of treatment. Additional secondary efficacy assessments were evaluated based on the weekly diary assessments, such as bothersome constipation, bothersome abdominal pain, and satisfaction with bowel habits at the end of the 12-week treatment period (using the baseline value as a co-variant for analysis).
Genotyping. A total of 61 polymorphisms in 23 candidate genes were selected for analysis. Genotyping was performed using the TaqMan® technology for most of the assays, while a few were performed in-house using the Third Wave Technologies Invader Assay technique (see TABLE 2 for assay IDs for all evaluated SNPs). Of the 61 SNPs genotyped, 55 yielded good quality, polymorphic genotypes for use in further evaluation.
Statistical analysis. Statistical analysis was performed using SAS version 8.2 (The SAS Institute, Cary, N.C., USA). Analysis methods included Fisher's Exact tests, analysis of Covariance (ANCOVA), logistic regression, and Mantel-Haenzel tests to determine odds ratios and 95% confidence intervals, with significance established at p<0.05. Calculation of linkage disequilibrium was performed using the GOLD (graphical overview of linkage disequilibrium) method described by Abecasis & Cookson, Bioinformatics 16: 182-3 (2000).
Demographic comparisons. TABLE 3 presents the demographic breakdown of the patients in the overall clinical study and those included in this genotype analysis. Distributions were similar between the genotype population and the total patient population. […] Based on these findings, it was decided to limit analysis to the Caucasian population, which accounted for nearly 90% of all patients, to prevent a confounding effect of race on subsequent genotype analyses. Furthermore, the analysis was also limited to those intent-to-treat patients that were treated with tegaserod or placebo for at least 7 days (total of 635 patients).
Comparison of overall response rates. TABLE 4 presents the overall response for the primary efficacy endpoint (a mean increase in 1 or more CSBM/week over baseline after 4 weeks) for tegaserod 6-mg bid compared with placebo for both the overall patient population and the subgroup of patients for which we had genotype data (all races and Caucasians only). […]

[H]/N=C(/NCCCCC)N/N=C/c1c[nH]c2ccc(OC)cc12 [tegaserod, Tegaserod]
Odds Ratio (All Caucasians (ITT, >=7 days), Age <65, M + F): 2.7 | Odds Ratio (All Caucasians (ITT, >=7 days), Age >=65, M + F): 1.2 | Odds Ratio (All Caucasians (ITT, >=7 days), Age All, Female): 2.6 | Odds Ratio (All Caucasians (ITT, >=7 days), Age All, M + F): 2.5 | Odds Ratio (All Caucasians (ITT, >=7 days), Age All, Male): 1.8 | Odds Ratio (All genotyped (ITT, >=7 days), Age <65, M + F): 2.8 | Odds Ratio (All genotyped (ITT, >=7 days), Age >=65, M + F): 2.4 | Odds Ratio (All genotyped (ITT, >=7 days), Age All, Female): 2.7 | Odds Ratio (All genotyped (ITT, >=7 days), Age All, M + F): 2.7 | Odds Ratio (All genotyped (ITT, >=7 days), Age All, Male): 2.5 | Odds Ratio (All patients (ITT, >=7 days), Age <65, M + F): 2.5 | Odds Ratio (All patients (ITT, >=7 days), Age >=65, M + F): 1.4 | Odds Ratio (All patients (ITT, >=7 days), Age All, Female): 2.4 | Odds Ratio (All patients (ITT, >=7 days), Age All, M + F): 2.3 | Odds Ratio (All patients (ITT, >=7 days), Age All, Male): 1.9 | Odds Ratio (Caucasians genotyped (ITT, >=7 days), Age <65, M + F, all genotypes): 2.8 | Odds Ratio (Caucasians genotyped (ITT, >=7 days), Age >=65, M + F, all genotypes): 2.1 | Odds Ratio (Caucasians genotyped (ITT, >=7 days), Age All, Female, all genotypes): 2.7 | Odds Ratio (Caucasians genotyped (ITT, >=7 days), Age All, M + F, all genotypes): 2.6 | Odds Ratio (Caucasians genotyped (ITT, >=7 days), Age All, Male, all genotypes): 2.5 | Odds Ratio (ITT Caucasians >=7 days, 0 of 14 SNPs): 1.1 | Odds Ratio (ITT Caucasians >=7 days, >=1 of 14 SNPs): 4.1 | Odds Ratio (ITT Caucasians >=7 days, AQP3 (PG ID 1838) genotype CC): 2.4 | Odds Ratio (ITT Caucasians >=7 days, AQP3 (PG ID 1838) genotype CG): 2.6 | Odds Ratio (ITT Caucasians >=7 days, AQP3 (PG ID 1838) genotype GG): 11.3 | Odds Ratio (ITT Caucasians >=7 days, Female (All ages), 0 of the 12 SNPs): 1.5 | Odds Ratio (ITT Caucasians >=7 days, Female (All ages), 1-12 of the 12 SNPs): 4.7 | Odds Ratio (ITT Caucasians >=7 days, HTR3B (PG ID 3755) genotype AA): 2.7 | Odds Ratio (ITT Caucasians >=7 days, HTR3B (PG ID 3755) genotype AC): 2.0 | Odds Ratio (ITT Caucasians >=7 days, HTR3B (PG ID 3755) genotype CC): 8.0 | Odds Ratio (ITT Caucasians >=7 days, HTR4 (PG ID 1746) genotype CC): 2.7 | Odds Ratio (ITT Caucasians >=7 days, HTR4 (PG ID 1746) genotype CT): 2.2 | Odds Ratio (ITT Caucasians >=7 days, HTR4 (PG ID 1746) genotype TT): 8.4 | Odds Ratio (ITT Caucasians >=7 days, HTR4 (PG ID 3743) genotype AA): 3.0 | Odds Ratio (ITT Caucasians >=7 days, HTR4 (PG ID 3743) genotype AC): 2.8 | Odds Ratio (ITT Caucasians >=7 days, HTR4 (PG ID 3743) genotype CC): 14.0 | Odds Ratio (ITT Caucasians >=7 days, HTR4 (PG ID 3747) genotype AA): 3.0 | Odds Ratio (ITT Caucasians >=7 days, HTR4 (PG ID 3747) genotype AT): 2.2 | Odds Ratio (ITT Caucasians >=7 days, HTR4 (PG ID 3747) genotype TT): 5.8 | Odds Ratio (ITT Caucasians >=7 days, HTR4 (PG ID 3753) genotype CC): 2.7 | Odds Ratio (ITT Caucasians >=7 days, HTR4 (PG ID 3753) genotype CT): 2.1 | Odds Ratio (ITT Caucasians >=7 days, HTR4 (PG ID 3753) genotype TT): 7.0 | Odds Ratio (ITT Caucasians >=7 days, HTR4 (PG ID 3754) genotype AA): 3.2 | Odds Ratio (ITT Caucasians >=7 days, HTR4 (PG ID 3754) genotype AT): 1.9 | Odds Ratio (ITT Caucasians >=7 days, HTR4 (PG ID 3754) genotype TT): 4.9 | Odds Ratio (ITT Caucasians >=7 days, HTR4 (PG ID 3756) genotype AA): 2.8 | Odds Ratio (ITT Caucasians >=7 days, HTR4 (PG ID 3756) genotype AC): 2.0 | Odds Ratio (ITT Caucasians >=7 days, HTR4 (PG ID 3756) genotype CC): 8.1 | Odds Ratio (ITT Caucasians >=7 days, M + F (<65), 0 of the 12 SNPs): 1.5 | Odds Ratio (ITT Caucasians >=7 days, M + F (<65), 1-12 of the 12 SNPs): 5.3 | Odds Ratio (ITT Caucasians >=7 days, M + F (>=65), 0 of the 12 SNPs): 0.3 | Odds Ratio (ITT Caucasians >=7 days, M + F (>=65), 1-12 of the 12 SNPs): 7.0 | Odds Ratio (ITT Caucasians >=7 days, M + F (All ages), 0 of the 12 high responder SNPs): 1.3 | Odds Ratio (ITT Caucasians >=7 days, M + F (All ages), 1-12 of the 12 high responder SNPs): 5.4 | Odds Ratio (ITT Caucasians >=7 days, MLN (PG ID 1783) genotype CC): 2.5 | Odds Ratio (ITT Caucasians >=7 days, MLN (PG ID 1783) genotype CT): 2.0 | Odds Ratio (ITT Caucasians >=7 days, MLN (PG ID 1783) genotype TT): 7.2 | Odds Ratio (ITT Caucasians >=7 days, Male (All ages), 0 of the 12 SNPs): 0.3 | Odds Ratio (ITT Caucasians >=7 days, Male (All ages), 1-12 of the 12 SNPs): 22.5 | Odds Ratio (ITT Caucasians >=7 days, SCNN1A (PG ID 3806) genotype GG): 5.0 | Odds Ratio (ITT Caucasians >=7 days, SCNN1A (PG ID 3806) genotype GT): 2.5 | Odds Ratio (ITT Caucasians >=7 days, SCNN1A (PG ID 3806) genotype TT): 1.9 | Odds Ratio (ITT Caucasians >=7 days, SLC12A2 (PG ID 1842) genotype AA): 12.0 | Odds Ratio (ITT Caucasians >=7 days, SLC12A2 (PG ID 1842) genotype AG): 1.1 | Odds Ratio (ITT Caucasians >=7 days, SLC12A2 (PG ID 1842) genotype GG): 2.9 | Odds Ratio (ITT Caucasians >=7 days, SLC12A2 (PG ID 3801) genotype CC): 17.0 | Odds Ratio (ITT Caucasians >=7 days, SLC12A2 (PG ID 3801) genotype CT): 0.8 | Odds Ratio (ITT Caucasians >=7 days, SLC12A2 (PG ID 3801) genotype TT): 3.8 | Odds Ratio (ITT Caucasians >=7 days, TPH1 (PG ID 1756) genotype GG): 5.4 | Odds Ratio (ITT Caucasians >=7 days, TPH1 (PG ID 1756) genotype GT): 2.4 | Odds Ratio (ITT Caucasians >=7 days, TPH1 (PG ID 1756) genotype TT): 1.5 | Odds Ratio (ITT Caucasians >=7 days, TPH1 (PG ID 3784) genotype CC): 1.6 | Odds Ratio (ITT Caucasians >=7 days, TPH1 (PG ID 3784) genotype CT): 2.4 | Odds Ratio (ITT Caucasians >=7 days, TPH1 (PG ID 3784) genotype TT): 5.5 | Odds Ratio (high responder genotypes of the twelve SNPs in six genes): ≥ 5
